Measured values reported in US20260078120A1, “SUBSTITUTED PYRIDOPYRIMIDINONES” (MIRATI THERAPEUTICS, INC., priority 2022, published 2026).
Like-named read-outs stand apart in the source and are kept apart here.

Assays:
Format in all cases: cell-based
[1] = system: T47D (PI3Kα H1047R mutant) cells; experiment: Inhibition of pAKT formation, alphaLISA SureFire Ultra AKT 1/2/3 (pS473), T47D cells; conditions: T47D (PI3Kα H1047R mutant) cells, inhibition of pAKT (pS473) formation, approximately one hour or 24 hours treatment, read-out: T47D pAKT (H1047R mutant) IC50
Procedure: The ability of a compound of Formula (I) to inhibit the formation of pAKT was measured using alphaLISA Surefire Ultra AKT 1/2/3 (pS473) Assay Kit (#ALSU-PAKT-B50K) was obtained from Perkin Elmer (Waltham, MA).
To prepare assay plates for pAKT alphaLISA assays, cells were trypsinized, resuspended in fresh media, and viable cells were counted utilizing trypan blue exclusion. Prior to seeding, cells were washed with PBS and resuspended in HBSS (Gibco, #14025092). T47D (12,000/w), SKBR3(12,000/w), or MKN1(24,000/w) cells were seeded at 12 μl per well in a solid white flat bottom 384 cell culture plate (Perkin Elmer #6007680).
Immediately after seeding, cells were dosed using an Echo Liquid Handler (Beckman Coulter) with compounds at a […] starting concentration and serially diluted (1:4) for a total of 10 concentrations. […] Cells were incubated with the compounds (solubilized in DMSO) for approximately one hour or 24 hours at 37° C. After one hour (or 24 hours) of treatment, cells were lysed with 3 μl of the 5× lysis buffer (provided and incubated at room temperature for 15 min on a microtiter plate shaker). Once cells were sufficiently lysed, 7.5 μl of the acceptor bead mix (made using the manufacturers recommended dilutions) was added to each well and left on the microtiter plate shaker for 1 min prior to incubating plates at room temperature for one hour, in the absence of light. After one hour of incubation with the acceptor bead mix, 7.5 μl of the donor bead mix (made using the manufacturers recommended dilutions) was added to each well and left on the microtiter plate shaker for 1 min prior to incubating plates at room temperature overnight in the absence of light. Plates were then imaged the following day using a CLARIOstar microplate reader (BMG Labtech, Germany).
Percent of control values were calculated by subtracting the average signal from the positive control (alpelisib) treated wells from all treated wells (including DMSO control wells) and then divided by the average signal from the vehicle DMSO treated control wells. Percent of vehicle control values were plotted as log (inhibitor) vs. response-Variable slope (four parameters) for curve fitting and IC50 values were determined using XLfit.
Key: N.D. =not determined
Inhibition of pAKT in T47D (PI3Kα H1047R mutant) cells by Exemplary Compounds of Formula (I)

[2] = system: T47D (PI3Kα H1047R mutant) cells; experiment: CellTiter-Glo 2.0 luminescent cell viability assay, 72 hours, T47D cells; conditions: T47D (PI3Kα H1047R mutant) cells, CellTiter-Glo, approximately 72 hours, read-out: T47D (H1047R mutant) Viability IC50
Procedure, shortened: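 Viability was measured by CellTiter-Glo 2.0 luminescence after approximately 72 h of compound exposure at 37° C. Plating was 1000 cells per well the day before dosing, with ten 1:4 dilutions from a 10 µM top concentration. Values as percent of vehicle were fitted by variable-slope log(inhibitor) regression to give IC50.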

[3] = system: SKBR3 (PI3Kα wild type) cells; experiment: CellTiter-Glo 2.0 luminescent cell viability assay, 72 hours, SKBR3 cells; conditions: SKBR3 (PI3Kα wild type) cells, CellTiter-Glo, approximately 72 hours, read-out: SKBR3 (WT) Viability IC50
Procedure, shortened: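 Viability measured via CTG luminescence following roughly 72 hours of compound exposure at 37° C. Dosing used a 10 um starting concentration diluted 1:4 over 10 points; percent-of-vehicle data fitted with a variable-slope four-parameter model for IC50.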

Compound | IC50 ([1]; Homo sapiens, T47D) | IC50 [2] | IC50 [3] | IC50 ([2]; Homo sapiens, T47D, 72 h) | IC50 ([3]; Homo sapiens, SK-BR-3, 72 h) | IC50 [1]
Cc1cc([C@@H](C)Nc2ccc(Cl)nc2C(=O)O)c2nc(N3Cc4ccccc4C3)c(C)c(=O)n2c1 [Example 10-30, (R)-6-chloro-3-((1-(2-(isoindolin-2-yl)-3,7-dimethyl-4-oxo-4H-pyrido[1,2-a]pyrimidin-9-yl)ethyl)amino)picolinic acid] | 0.00362 µM | 0.055 µM | > 10 µM |  |  | 
Cc1cc([C@@H](C)Nc2ccccc2C(=O)O)c2nc(N3CCC(F)(F)[C@@H]3C)c(C#N)c(=O)n2c1 [Example 10-31, 2-(((R)-1-(3-cyano-2-((S)-3,3-difluoro-2-methylpyrrolidin-1-yl)-7-methyl-4-oxo-4H-pyrido[1,2-a]pyrimidin-9-yl)ethyl)amino)benzoic acid] | 0.00639 µM |  |  | 0.0551 µM | > 10 µM | 
Cc1cc([C@@H](C)Nc2ccccc2C(=O)O)c2nc(N3CCC(F)(F)[C@H]3C)c(C#N)c(=O)n2c1 [Example 10-32, 2-(((R)-1-(3-cyano-2-((R)-3,3-difluoro-2-methylpyrrolidin-1-yl)-7-methyl-4-oxo-4H-pyrido[1,2-a]pyrimidin-9-yl)ethyl)amino)benzoic acid] | 0.00578 µM |  |  | 0.0673 µM | > 10 µM | 
Cc1cc([C@@H](C)Nc2ccccc2C(=O)O)c2nc(N3CCN(c4nccs4)CC3)c(C)c(=O)n2c1 [Example 10-33, (R)-2-((1-(3,7-dimethyl-4-oxo-2-(4-(thiazol-2-yl)piperazin-1-yl)-4H-pyrido[1,2-a]pyrimidin-9-yl)ethyl)amino)benzoic acid] | 0.00219 µM |  |  | 0.0565 µM | > 10 µM | 
Cc1cc([C@@H](C)Nc2ccccc2C(=O)O)c2nc(N3CCN(c4ccccn4)CC3)c(C)c(=O)n2c1 [Example 10-34, (R)-2-((1-(3,7-dimethyl-4-oxo-2-(4-(pyridin-2-yl)piperazin-1-yl)-4H-pyrido[1,2-a]pyrimidin-9-yl)ethyl)amino)benzoic acid] | 0.00138 µM |  |  | 0.0566 µM | > 10 µM | 
Cc1cc([C@@H](C)Nc2ccccc2C(=O)O)c2nc(N3CCN(c4ccc(C#N)c5cc(C#N)ccc45)CC3)c(C)c(=O)n2c1 [Example 10-35, (R)-2-((1-(2-(4-(4,6-dicyanonaphthalen-1-yl)piperazin-1-yl)-3,7-dimethyl-4-oxo-4H-pyrido[1,2-a]pyrimidin-9-yl)ethyl)amino)benzoic acid] | 0.00472 µM |  |  | 0.0567 µM | 7.95 µM | 
Cc1cc([C@@H](C)Nc2ccccc2C(=O)O)c2nc(N3CCN(c4ccc(F)cc4)CC3)c(C)c(=O)n2c1 [Example 10-36, (R)-2-((1-(2-(4-(4-fluorophenyl)piperazin-1-yl)-3,7-dimethyl-4-oxo-4H-pyrido[1,2-a]pyrimidin-9-yl)ethyl)amino)benzoic acid] | 0.0038 µM |  |  | 0.057 µM | > 10 µM | 
Cc1cc([C@@H](C)Nc2ccccc2C(=O)O)c2nc(NC3CC(F)(F)C3)c(C#N)c(=O)n2c1 [Example 10-37, (R)-2-((1-(3-cyano-2-((3,3-difluorocyclobutyl)amino)-7-methyl-4-oxo-4H-pyrido[1,2-a]pyrimidin-9-yl)ethyl)amino)benzoic acid] | 0.00219 µM |  |  | 0.0574 µM | > 10 µM | 
Cc1cc([C@@H](C)Nc2ccccc2C(=O)O)c2nc(N3CCN(c4cccnc4)CC3)c(C)c(=O)n2c1 [Example 10-38, (R)-2-((1-(3,7-dimethyl-4-oxo-2-(4-(pyridin-3-yl)piperazin-1-yl)-4H-pyrido[1,2-a]pyrimidin-9-yl)ethyl)amino)benzoic acid] | 0.00197 µM |  |  | 0.0579 µM | > 10 µM | 
C[C@@H](Nc1ccccc1C(=O)O)c1cc(F)cn2c(=O)c(C#N)c(N3Cc4ccccc4C3)nc12 [Example 10-39, (R)-2-((1-(3-cyano-7-fluoro-2-(isoindolin-2-yl)-4-oxo-4H-pyrido[1,2-a]pyrimidin-9-yl)ethyl)amino)benzoic acid] | 0.0017 µM |  |  | 0.059 µM | > 10 µM | 
Cc1cc([C@@H](C)Nc2ccccc2C(=O)O)c2nc(N3CCN(c4ccc(F)cc4)CC3)c(C#N)c(=O)n2c1 [Example 10-40, (R)-2-((1-(3-cyano-2-(4-(4-fluorophenyl)piperazin-1-yl)-7-methyl-4-oxo-4H-pyrido[1,2-a]pyrimidin-9-yl)ethyl)amino)benzoic acid] | 0.00191 µM |  |  | 0.06 µM | > 10 µM | 
Cc1cc([C@@H](C)Nc2ccccc2C(=O)O)c2nc(N3CCN(c4ccc(C#N)cc4)[C@@H](C)C3)c(C#N)c(=O)n2c1 [Example 10-41, 2-(((R)-1-(3-cyano-2-((S)-4-(4-cyanophenyl)-3-methylpiperazin-1-yl)-7-methyl-4-oxo-4H-pyrido[1,2-a]pyrimidin-9-yl)ethyl)amino)benzoic acid] | 0.00718 µM |  |  | 0.0602 µM | > 10 µM | 
Cc1cc([C@@H](C)Nc2ccccc2C(=O)O)c2nc(N3CCN(c4ccc(C#N)cc4)C[C@H]3C)c(C)c(=O)n2c1 [Example 10-42, 2-(((R)-1-(2-((R)-4-(4-cyanophenyl)-2-methylpiperazin-1-yl)-3,7-dimethyl-4-oxo-4H-pyrido[1,2-a]pyrimidin-9-yl)ethyl)amino)benzoic acid] |  | 0.0615 µM | 9.87 µM |  |  | 0.00309 µM
Cc1cc([C@@H](C)Nc2ccccc2C(=O)O)c2nc(N3Cc4ccccc4C3)c(C#N)c(=O)n2c1 [Example 10-43, (R)-2-((1-(3-cyano-2-(isoindolin-2-yl)-7-methyl-4-oxo-4H-pyrido[1,2-a]pyrimidin-9-yl)ethyl)amino)benzoic acid] | 0.00252 µM |  |  | 0.0622 µM | > 10 µM | 
Cc1cc([C@@H](C)Nc2ccccc2C(=O)O)c2nc(N3CC(C)C(F)(F)C3)c(C#N)c(=O)n2c1 (stereo partly drawn) [Example 10-44, 2-(((1R)-1-(3-cyano-2-(3,3-difluoro-4-methylpyrrolidin-1-yl)-7-methyl-4-oxo-4H-pyrido[1,2-a]pyrimidin-9-yl)ethyl)amino)benzoic acid] | 0.00147 µM |  |  | 0.0625 µM | 5.03 µM | 
Cc1cc([C@@H](C)Nc2ccccc2C(=O)O)c2nc(N3CCN(c4ccccc4C#N)CC3)c(C)c(=O)n2c1 [Example 10-45, (R)-2-((1-(2-(4-(2-cyanophenyl)piperazin-1-yl)-3,7-dimethyl-4-oxo-4H-pyrido[1,2-a]pyrimidin-9-yl)ethyl)amino)benzoic acid] | 0.00294 µM |  |  | 0.0642 µM | > 10 µM | 
Cc1cc([C@@H](C)Nc2ccccc2C(=O)O)c2nc(N3CCN(c4cc(C)no4)CC3)c(C)c(=O)n2c1 [Example 10-48, (R)-2-((1-(3,7-dimethyl-2-(4-(3-methylisoxazol-5-yl)piperazin-1-yl)-4-oxo-4H-pyrido[1,2-a]pyrimidin-9-yl)ethyl)amino)benzoic acid] | 0.00296 µM |  |  | 0.0663 µM | > 10 µM | 
Cc1cc([C@@H](C)Nc2ccccc2C(=O)O)c2nc(N(C)C3CC(F)(F)C3)c(C#N)c(=O)n2c1 [Example 10-49, (R)-2-((1-(3-cyano-2-((3,3-difluorocyclobutyl)(methyl)amino)-7-methyl-4-oxo-4H-pyrido[1,2-a]pyrimidin-9-yl)ethyl)amino)benzoic acid] | 0.00211 µM |  |  | 0.0664 µM | > 10 µM | 
Cc1cc([C@@H](C)Nc2ccc(Cl)nc2C(=O)O)c2nc(N3Cc4ccc(F)cc4C3)c(C#N)c(=O)n2c1 [Example 10-50, (R)-6-chloro-3-((1-(3-cyano-2-(5-fluoroisoindolin-2-yl)-7-methyl-4-oxo-4H-pyrido[1,2-a]pyrimidin-9-yl)ethyl)amino)picolinic acid] | 0.00134 µM |  |  | 0.0665 µM | > 10 µM | 
